# “And” between values parts separate entries of the source, which are not always exact repeats. Identical values can stand only once. Toxic doses and inconclusive results are not listed.
# Tested on: BDF1 mice, P388 leukemia ip, median survival T/C
# Test: NCI In Vivo Anticancer Drug Screen. Data for tumor model P388 Leukemia (intraperitoneal) in B6D2F1 (BDF1) mice
# Settings: endpoint: median survival time, higher = longer survival
# In short: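 Antitumour effect was judged in vivo: survival in drug-treated mice, normalised to that of vehicle-dosed controls, gives the reported T/C.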
# [1] = dose: 100.0 mg/kg/injection, schedule: Q04DX003 (ip), vehicle: saline with Tween-80
# [2] = dose: 200.0 mg/kg/injection, schedule: Q04DX003 (ip), vehicle: saline with Tween-80
# [3] = dose: 400.0 mg/kg/injection, schedule: Q04DX003 (ip), vehicle: saline with Tween-80
# [4] = dose: 50.0 mg/kg/injection, schedule: Q01DX010 (ip), vehicle: saline
# [5] = dose: 50.0 mg/kg/injection, schedule: Q01DX009 (ip), vehicle: saline with Tween-80
# [6] = dose: 100.0 mg/kg/injection, schedule: Q01DX009 (ip), vehicle: saline with Tween-80
# [7] = dose: 12.5 mg/kg/injection, schedule: Q01DX009 (ip), vehicle: Klucel (hydroxypropylcellulose) (HPC)
# [8] = dose: 25.0 mg/kg/injection, schedule: Q01DX009 (ip), vehicle: Klucel (hydroxypropylcellulose) (HPC)
# [9] = dose: 200.0 mg/kg/injection, schedule: Q01DX009 (ip), vehicle: saline with Tween-80
# [10] = dose: 200.0 mg/kg/injection, schedule: Q04DX003 (ip), vehicle: other
# [11] = dose: 400.0 mg/kg/injection, schedule: Q04DX003 (ip), vehicle: other
smiles,measurement,setting,value
CC1(C)COC(c2ccc(C(C)(C)C)cc2C(O)(c2cc(C(C)(C)C)ccc2C2=NC(C)(C)CO2)c2cc(C(C)(C)C)ccc2C2=NC(C)(C)CO2)=N1,T/C,[1],92 % of control and 94 % of control
same,T/C,[2],94 % of control
same,T/C,[3],90 % of control and 94 % of control
CC1(C)OCC(/C=C/C=N/Nc2ccc([N+](=O)[O-])cc2)O1 (stereo not drawn),T/C,"dose: 100.0 mg/kg/injection, schedule: Q01DX001 (ip), vehicle: saline with Tween-80",105 % of control
same,T/C,"dose: 200.0 mg/kg/injection, schedule: Q01DX001 (ip), vehicle: saline with Tween-80",110 % of control
N[C@@H](Cc1ccc(O)c(O)c1)C(=O)O,T/C,[4],92 % of control
same,T/C,"dose: 100.0 mg/kg/injection, schedule: Q01DX010 (ip), vehicle: saline",96 % of control
same,T/C,"dose: 200.0 mg/kg/injection, schedule: Q01DX010 (ip), vehicle: saline",100 % of control
same,T/C,"dose: 400.0 mg/kg/injection, schedule: Q01DX010 (ip), vehicle: saline",107 % of control
Clc1ccc(-c2noc(CN3CCCCC3)n2)cc1,T/C,[5],88 % of control
same,T/C,[6],88 % of control
CC1CC(C)(O)C2C3(C)CCCC2(COC3=O)C12CCC1(CCOC1=O)O2 (stereo not drawn),T/C,"dose: 2.5 mg/kg/injection, schedule: Q01DX009 (ip), vehicle: Klucel (hydroxypropylcellulose) (HPC)",88 % of control
same,T/C,"dose: 5.0 mg/kg/injection, schedule: Q01DX009 (ip), vehicle: Klucel (hydroxypropylcellulose) (HPC)",106 % of control
same,T/C,"dose: 10.0 mg/kg/injection, schedule: Q01DX009 (ip), vehicle: Klucel (hydroxypropylcellulose) (HPC)",95 % of control
CC12C=CC(=O)C=C1CCC1C2C(O)CC2(C)C1CCC2(O)C(=O)COC(=O)Cc1ccc(N(CCCl)CCCl)cc1 (stereo not drawn),T/C,"dose: 3.5 mg/kg/injection, schedule: Q01DX009 (ip), vehicle: saline",97 % of control
same,T/C,"dose: 7.0 mg/kg/injection, schedule: Q01DX009 (ip), vehicle: saline",97 % of control
same,T/C,"dose: 14.0 mg/kg/injection, schedule: Q01DX009 (ip), vehicle: saline",118 % of control
NC(=S)NNC(=O)/C=C/c1ccccc1,T/C,"dose: 100.0 mg/kg/injection, schedule: Q01DX001 (ip), vehicle: saline sonified",104 % of control
same,T/C,"dose: 200.0 mg/kg/injection, schedule: Q01DX001 (ip), vehicle: saline sonified",100 % of control
same,T/C,"dose: 400.0 mg/kg/injection, schedule: Q01DX001 (ip), vehicle: saline sonified",95 % of control
NC(=S)c1nn(C2OC(CO)C(O)C2O)c2ncnc(N)c12 (stereo not drawn),T/C,"dose: 0.37 mg/kg/injection, schedule: Q01DX009 (ip), vehicle: saline",111 % of control
same,T/C,"dose: 0.75 mg/kg/injection, schedule: Q01DX009 (ip), vehicle: saline",116 % of control
N=C(N)SCc1cccc([N+](=O)[O-])c1,T/C,[7],97 % of control
same,T/C,[8],103 % of control
same,T/C,"dose: 50.0 mg/kg/injection, schedule: Q01DX009 (ip), vehicle: Klucel (hydroxypropylcellulose) (HPC)",110 % of control
CCCCCCCCCCCCCCCCOc1ccccc1CNc1cc(C(F)(F)F)ccc1Cl,T/C,"dose: 100.0 mg/kg/injection, schedule: Q01DX009 (ip), vehicle: other",90 % of control
same,T/C,"dose: 200.0 mg/kg/injection, schedule: Q01DX009 (ip), vehicle: other",100 % of control
same,T/C,"dose: 400.0 mg/kg/injection, schedule: Q01DX009 (ip), vehicle: other",105 % of control
COc1cc2c(cc1Oc1c(Oc3c(O)c(OC)cc4c3C(CC(C)C)N(C)CC4)c(OC)cc3c1C(CC(C)C)N(C)CC3)C(CC(C)C)N(C)CC2 (stereo not drawn),T/C,"dose: 12.5 mg/kg/injection, schedule: Q01DX010 (ip), vehicle: saline",95 % of control
same,T/C,"dose: 25.0 mg/kg/injection, schedule: Q01DX010 (ip), vehicle: saline",90 % of control
same,T/C,[4],95 % of control
CCCCCCCCC(C(=O)c1ccccc1)C(O)(C(F)(F)F)C(F)(F)F (stereo not drawn),T/C,[5],90 % of control
same,T/C,[6],95 % of control
same,T/C,[1],95 % of control
same,T/C,[9],109 % of control
same,T/C,[2],115 % of control
same,T/C,[3],115 % of control
CC(=O)Nc1ccc2c([N+](=O)[O-])cccc2c1-c1c(NC(C)=O)ccc2c([N+](=O)[O-])cccc12,T/C,"dose: 100.0 mg/kg/injection, schedule: Q01DX009 (ip), vehicle: Klucel (hydroxypropylcellulose) (HPC)",110 % of control
same,T/C,"dose: 100.0 mg/kg/injection, schedule: Q04DX003 (ip), vehicle: Klucel (hydroxypropylcellulose) (HPC)",109 % of control
same,T/C,"dose: 200.0 mg/kg/injection, schedule: Q04DX003 (ip), vehicle: Klucel (hydroxypropylcellulose) (HPC)",100 % of control
same,T/C,"dose: 400.0 mg/kg/injection, schedule: Q01DX009 (ip), vehicle: Klucel (hydroxypropylcellulose) (HPC)",95 % of control
same,T/C,"dose: 400.0 mg/kg/injection, schedule: Q04DX003 (ip), vehicle: Klucel (hydroxypropylcellulose) (HPC)",100 % of control
C=C(C)C12OC3(c4ccccc4)OC1C1C4OC4(CO)C(O)C4(O)C(=O)C(C)=CC4C1(O3)C(C)C2OC(=O)/C=C/c1ccccc1 (stereo not drawn),T/C,"dose: 6.3 micrograms/kg/injection, schedule: Q## X009 (ip), vehicle: saline + alcohol",114 % of control
same,T/C,"dose: 12.5 micrograms/kg/injection, schedule: Q## X009 (ip), vehicle: saline + alcohol",110 % of control
same,T/C,"dose: 25.0 micrograms/kg/injection, schedule: Q## X009 (ip), vehicle: saline + alcohol",118 % of control
same,T/C,"dose: 50.0 micrograms/kg/injection, schedule: Q## X009 (ip), vehicle: saline + alcohol",109 % of control
same,T/C,"dose: 100.0 micrograms/kg/injection, schedule: Q## X009 (ip), vehicle: saline + alcohol",159 % of control
same,T/C,"dose: 200.0 micrograms/kg/injection, schedule: Q## X009 (ip), vehicle: saline + alcohol",173 % of control
CCN(C)c1nc(N(C)CC)c2nc(N(C)CC)nc(N(C)CC)c2n1,T/C,"dose: 3.13 mg/kg/injection, schedule: Q01DX009 (ip), vehicle: Klucel (hydroxypropylcellulose) (HPC)",108 % of control
same,T/C,"dose: 6.25 mg/kg/injection, schedule: Q01DX009 (ip), vehicle: Klucel (hydroxypropylcellulose) (HPC)",99 % of control
same,T/C,[7],99 % of control
same,T/C,[8],106 % of control
COc1cccc2c1C(=O)c1c(O)c3c(c(O)c1C2=O)C[C@@](O)(/C(CO)=N/NC(=O)c1ccc(Cl)c(Cl)c1)C[C@@H]3OC1CC(N)C(O)C(C)O1 (stereo partly drawn),T/C,"dose: 0.78 mg/kg/injection, schedule: Q01DX009 (ip), vehicle: water",94 % of control
same,T/C,"dose: 3.12 mg/kg/injection, schedule: Q01DX009 (ip), vehicle: water",116 % of control and 217 % of control
same,T/C,"dose: 6.25 mg/kg/injection, schedule: Q01DX009 (ip), vehicle: water",121 % of control
CCCCCCCCCCCCCCCCSc1ccc(C)cc1,T/C,"dose: 5.0 mg/kg/injection, schedule: Q04DX003 (ip), vehicle: saline sonified",105 % of control
same,T/C,"dose: 10.0 mg/kg/injection, schedule: Q04DX003 (ip), vehicle: saline sonified",105 % of control
same,T/C,"dose: 20.0 mg/kg/injection, schedule: Q04DX003 (ip), vehicle: saline sonified",100 % of control
same,T/C,[10],100 % of control
same,T/C,[11],100 % of control
CCCCCCCCC(C(O)c1ccccc1)C(O)(C(F)(F)F)C(F)(F)F (stereo not drawn),T/C,"dose: 100.0 mg/kg/injection, schedule: Q04DX003 (ip), vehicle: other",90 % of control
same,T/C,[10],95 % of control
same,T/C,[11],115 % of control
CCCCS(=O)/C=C\C(=O)NCCC (stereo not drawn),T/C,"dose: 25.0 mg/kg/injection, schedule: Q01DX009 (ip), vehicle: saline with Tween-80",100 % of control
same,T/C,[5],99 % of control
same,T/C,[6],100 % of control
CC(=O)Nc1c(Cl)cc2c(c1Cl)Cc1cc([N+](=O)[O-])ccc1-2,T/C,[6],95 % of control
same,T/C,[1],92 % of control and 95 % of control
same,T/C,[9],95 % of control
same,T/C,[2],92 % of control and 95 % of control
same,T/C,"dose: 400.0 mg/kg/injection, schedule: Q01DX009 (ip), vehicle: saline with Tween-80",100 % of control
same,T/C,[3],91 % of control
CCOC(=O)CNCc1ccc(Cl)c(Cl)c1,T/C,"dose: 50.0 mg/kg/injection, schedule: Q04DX003 (ip), vehicle: water",111 % of control
same,T/C,"dose: 100.0 mg/kg/injection, schedule: Q04DX003 (ip), vehicle: water",113 % of control
same,T/C,"dose: 200.0 mg/kg/injection, schedule: Q04DX003 (ip), vehicle: water",111 % of control
O=C1CN(Cc2ccccc2)CC(=O)N2C(c3ccccc3)CCCN12 (stereo not drawn),T/C,"dose: 50.0 mg/kg/injection, schedule: Q01DX005 (ip), vehicle: saline with Tween-80",97 % of control
same,T/C,"dose: 100.0 mg/kg/injection, schedule: Q01DX005 (ip), vehicle: saline with Tween-80",87 % of control
same,T/C,"dose: 200.0 mg/kg/injection, schedule: Q01DX005 (ip), vehicle: saline with Tween-80",92 % of control

# — PubChem BioAssay AID328 (DTP/NCI, 2004)
